Target: benzodiazepine modulatory unit of the GABAA receptor complex (3H-flunitrazepam binding, cerebral cortex membranes)
Experiment: In vitro inhibition of 3H-flunitrazepam (3H-FNM) binding
Parameters: species or system rat
Details: inhibition of specific 3H-FNM (1 nM) binding, cerebral cortex membranes from male Wistar rats, 40 min at 2° C.
Protocol: In Vitro Inhibition of ^3H-Flunitrazepam (^3H-FNM) Binding
The GABA recognition site and the benzodiazepine modulatory unit can selectively be labelled with ^3H-flunitrazepam.
Preparations are performed at 0-4° C. unless otherwise indicated. Cerebral cortex from male Wistar rats (150-200 g) is homogenised for 5-10 sec in 20 ml Tris-HCl (30 mM, pH 7.4) using an Ultra-Turrax homogeniser. The suspension is centrifuged at 27,000×g for 15 min and the pellet is washed three times with buffer (centrifuged at 27,000×g for 10 min). The washed pellet is homogenized in 20 ml of buffer and incubated on a water bath (37° C.) for 30 min to remove endogenous GABA and then centrifuged for 10 min at 27,000×g. The pellet is then homogenized in buffer and centrifuged for 10 min at 27,000×g. The final pellet is resuspended in 30 ml buffer and the preparation is frozen and stored at −20° C.
The membrane preparation is thawed and centrifuged at 2° C. for 10 min at 27,000×g. The pellet is washed twice with 20 ml 50 mM Tris-citrate, pH 7.1 using an Ultra-Turrax homogeniser and centrifuged for 10 min at 27,000×g. The final pellet is resuspended in 50 mM Tris-citrate, pH 7.1 (500 ml buffer per g of original tissue), and then used for binding assays. Aliquots of 0.5 ml tissue are added to 25 μl of test solution and 25 μl of ^3H-FNM (1 nM, final concentration), mixed and incubated for 40 min at 2° C. Non-specific binding is determined using Clonazepam (1 μM, final concentration). After incubation the samples are added 5 ml of ice-cold buffer and poured directly onto Whatman GF/C glass fibre filters under suction and immediately washed with 5 ml ice-cold buffer. The amount of radioactivity on the filters is determined by conventional liquid scintillation counting. Specific binding is total binding minus non-specific binding.
The test value will be given as IC50 (the concentration (μM) of the test substance which inhibits the specific binding of ^3H-FNM by 50%).
Co is specific binding in control assays, and
Cx is the specific binding in the test assay.
(The calculations assume normal mass-action kinetics).

IC50 [nM] | SMILES
1.2 | COc1ncccc1-c1cc(-n2cnc3cc(C(C)(C)O)ccc32)ccn1 [Compound 7a, 2-[1-(2′-Methoxy-[2,3′]bipyridinyl-4-yl)-1H-benzoimidazol-5-yl]-propan-2-ol]
38 | CC(C)(O)c1ccc2c(c1)ncn2-c1ccnc(-c2cccnc2Cl)c1 [Compound 7b, 2-[1-(2′-Chloro-[2,3′]bipyridinyl-4-yl)-1H-benzoimidazol-5-yl]-propan-2-ol]
7.5 | CC(C)(O)c1ccc2c(c1)ncn2-c1ccnc(-c2ccncc2F)c1 [Compound 7c, 2-[1-(3′-Fluoro-[2,4′]bipyridinyl-4-yl)-1H-benzoimidazol-5-yl]-propan-2-ol]
26 | CC(C)(O)c1ccc2c(c1)ncn2-c1ccnc(-c2ccncc2C#N)c1 [Compound 7d, 4-[5-(1-Hydroxy-1-methyl-ethyl)-benzoimidazol-1-yl]-[2,4′]bipyridinyl-3′-carbonitrile]

Source: patent publication US8492408B2, “Benzimidazole derivatives and their use for modulating the GABAA receptor complex” (Aniona APS, priority 2008, dated 2013)
